According to the supplement of paper PMC10307832:

How the values were obtained:
Assay in all cases: relative viability (nuclei count vs DMSO), 5 days (fraction); higher = more cells survive
NCI-H1563 = tested on: NCI-H1563
Procedure, shortened: (§1)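 Lung cancer cell lines, seeded in 1536-well plates, were treated the following day by pin tool with a single drug or with five library-drug doses (not always all listed) in √10 steps on top of a fixed anchor-drug dose. Cells were fixed and nuclei stained in one step after 5 days, and nuclei were counted. Relative viability is the nuclei count for treated wells divided by that for vehicle wells, reported as medians of duplicate plates.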

LOU-NH91 = tested on: LOU-NH91
Procedure, shortened: as §1

LU99A = tested on: LU99A
Procedure, shortened: as §1

NCI-H322M = tested on: NCI-H322M
Procedure, shortened: as §1

NCI-H2085 = tested on: NCI-H2085
Procedure, shortened: as §1

NCI-H3122 = tested on: NCI-H3122
Procedure, shortened: as §1

NCI-H2126 = tested on: NCI-H2126
Procedure, shortened: as §1

ChaGo-K-1 = tested on: ChaGo-K-1
Procedure, shortened: as §1

NCI-H1666 = tested on: NCI-H1666
Procedure, shortened: as §1

HCC-78 = tested on: HCC-78
Procedure, shortened: as §1

SK-LU-1 = tested on: SK-LU-1
Procedure, shortened: as §1

LCLC-103H = tested on: LCLC-103H
Procedure, shortened: as §1

LK-2 = tested on: LK-2
Procedure, shortened: as §1

RERF-LC-KJ = tested on: RERF-LC-KJ
Procedure, shortened: as §1

NCI-H23 = tested on: NCI-H23
Procedure, shortened: as §1

EMC-BAC-2 = tested on: EMC-BAC-2
Procedure, shortened: as §1

LXF-289 = tested on: LXF-289
Procedure, shortened: as §1

HCC-827 = tested on: HCC-827
Procedure, shortened: as §1

NCI-H1975 = tested on: NCI-H1975
Procedure, shortened: as §1

NCI-H2405 = tested on: NCI-H2405
Procedure, shortened: as §1

EPLC-272H = tested on: EPLC-272H
Procedure, shortened: as §1

SW 1573 = tested on: SW 1573
Procedure, shortened: as §1

C=C1C(=O)O[C@@H](CCCCCCCC)[C@@H]1C(=O)O [C-75] + CS(=O)(=O)N1CCN(Cc2cc3nc(-c4cccc5[nH]ncc45)nc(N4CCOCC4)c3s2)CC1 [Pictilisib] (partner 1 µM)
relative viability (NCI-H1563; first compound 0.08 µM): 0.606 | relative viability (NCI-H1563; first compound 0.253 µM): 0.681 | relative viability (NCI-H1563; first compound 0.8 µM): 0.737 | relative viability (NCI-H1563; first compound 2.53 µM): 0.673 | relative viability (NCI-H1563; first compound 8 µM): 0.63 | relative viability (LOU-NH91; first compound 0.08 µM): 0.555 | relative viability (LOU-NH91; first compound 0.253 µM): 0.602 | relative viability (LOU-NH91; first compound 0.8 µM): 0.446 | relative viability (LOU-NH91; first compound 2.53 µM): 0.406 | relative viability (LOU-NH91; first compound 8 µM): 0.461 | relative viability (LU99A; first compound 0.08 µM): 0.281 | relative viability (LU99A; first compound 0.253 µM): 0.306 | relative viability (LU99A; first compound 0.8 µM): 0.305 | relative viability (LU99A; first compound 2.53 µM): 0.286 | relative viability (LU99A; first compound 8 µM): 0.307 | relative viability (NCI-H322M; first compound 0.08 µM): 0.563 | relative viability (NCI-H322M; first compound 0.253 µM): 0.674 | relative viability (NCI-H322M; first compound 0.8 µM): 0.514 | relative viability (NCI-H322M; first compound 2.53 µM): 0.528 | relative viability (NCI-H322M; first compound 8 µM): 0.489 | relative viability (NCI-H2085; first compound 0.08 µM): 0.504 | relative viability (NCI-H2085; first compound 0.253 µM): 0.543 | relative viability (NCI-H2085; first compound 0.8 µM): 0.433 | relative viability (NCI-H2085; first compound 2.53 µM): 0.339 | relative viability (NCI-H2085; first compound 8 µM): 0.413 | relative viability (NCI-H3122; first compound 0.08 µM): 0.635 | relative viability (NCI-H3122; first compound 0.253 µM): 0.753 | relative viability (NCI-H3122; first compound 0.8 µM): 0.545 | relative viability (NCI-H3122; first compound 8 µM): 0.555 | relative viability (NCI-H2126; first compound 0.08 µM): 0.465 | relative viability (NCI-H2126; first compound 0.253 µM): 0.597 | relative viability (NCI-H2126; first compound 0.8 µM): 0.471 | relative viability (NCI-H2126; first compound 2.53 µM): 0.506 | relative viability (NCI-H2126; first compound 8 µM): 0.469 | relative viability (ChaGo-K-1; first compound 0.08 µM): 0.431 | relative viability (ChaGo-K-1; first compound 0.253 µM): 0.749 | relative viability (ChaGo-K-1; first compound 0.8 µM): 0.594 | relative viability (ChaGo-K-1; first compound 2.53 µM): 0.507 | relative viability (ChaGo-K-1; first compound 8 µM): 0.771 | relative viability (NCI-H1666; first compound 0.08 µM): 0.49 | relative viability (NCI-H1666; first compound 0.253 µM): 0.555 | relative viability (NCI-H1666; first compound 0.8 µM): 0.295 | relative viability (NCI-H1666; first compound 2.53 µM): 0.41 | relative viability (NCI-H1666; first compound 8 µM): 0.346 | relative viability (HCC-78; first compound 0.08 µM): 0.216 | relative viability (HCC-78; first compound 0.253 µM): 0.217 | relative viability (HCC-78; first compound 0.8 µM): 0.206 | relative viability (HCC-78; first compound 2.53 µM): 0.198 | relative viability (HCC-78; first compound 8 µM): 0.22 | relative viability (SK-LU-1; first compound 0.08 µM): 0.568 | relative viability (SK-LU-1; first compound 0.253 µM): 0.638 | relative viability (SK-LU-1; first compound 0.8 µM): 0.588 | relative viability (SK-LU-1; first compound 2.53 µM): 0.574 | relative viability (SK-LU-1; first compound 8 µM): 0.362 | relative viability (LCLC-103H; first compound 0.08 µM): 0.573 | relative viability (LCLC-103H; first compound 0.253 µM): 0.641 | relative viability (LCLC-103H; first compound 0.8 µM): 0.517 | relative viability (LCLC-103H; first compound 2.53 µM): 0.568 | relative viability (LCLC-103H; first compound 8 µM): 0.488 | relative viability (LK-2; first compound 0.08 µM): 0.444 | relative viability (LK-2; first compound 0.253 µM): 0.662 | relative viability (LK-2; first compound 0.8 µM): 0.555 | relative viability (LK-2; first compound 2.53 µM): 0.461 | relative viability (LK-2; first compound 8 µM): 0.396 | relative viability (RERF-LC-KJ; first compound 0.08 µM): 0.564 | relative viability (RERF-LC-KJ; first compound 0.253 µM): 0.528 | relative viability (RERF-LC-KJ; first compound 0.8 µM): 0.625 | relative viability (RERF-LC-KJ; first compound 2.53 µM): 0.537 | relative viability (RERF-LC-KJ; first compound 8 µM): 0.533 | relative viability (NCI-H23; first compound 0.08 µM): 0.459 | relative viability (NCI-H23; first compound 0.253 µM): 0.686 | relative viability (NCI-H23; first compound 0.8 µM): 0.416 | relative viability (NCI-H23; first compound 2.53 µM): 0.475 | relative viability (NCI-H23; first compound 8 µM): 0.311 | relative viability (EMC-BAC-2; first compound 0.08 µM): 0.51 | relative viability (EMC-BAC-2; first compound 0.253 µM): 0.491 | relative viability (EMC-BAC-2; first compound 0.8 µM): 0.51 | relative viability (EMC-BAC-2; first compound 2.53 µM): 0.521 | relative viability (EMC-BAC-2; first compound 8 µM): 0.587 | relative viability (LXF-289; first compound 0.08 µM): 0.77 | relative viability (LXF-289; first compound 0.253 µM): 0.836 | relative viability (LXF-289; first compound 0.8 µM): 0.76 | relative viability (LXF-289; first compound 2.53 µM): 0.771 | relative viability (LXF-289; first compound 8 µM): 0.73 | relative viability (HCC-827; first compound 0.08 µM): 0.954 | relative viability (HCC-827; first compound 0.253 µM): 0.95 | relative viability (HCC-827; first compound 0.8 µM): 1.14 | relative viability (HCC-827; first compound 2.53 µM): 0.694 | relative viability (HCC-827; first compound 8 µM): 0.915 | relative viability (NCI-H1975; first compound 0.08 µM): 0.286 | relative viability (NCI-H1975; first compound 0.253 µM): 0.282 | relative viability (NCI-H1975; first compound 0.8 µM): 0.278 | relative viability (NCI-H1975; first compound 2.53 µM): 0.326 | relative viability (NCI-H1975; first compound 8 µM): 0.347 | relative viability (NCI-H2405; first compound 0.08 µM): 0.471 | relative viability (NCI-H2405; first compound 0.253 µM): 0.307 | relative viability (NCI-H2405; first compound 0.8 µM): 0.37 | relative viability (NCI-H2405; first compound 2.53 µM): 0.408 | relative viability (NCI-H2405; first compound 8 µM): 0.391 | relative viability (EPLC-272H; first compound 0.08 µM): 0.336 | relative viability (EPLC-272H; first compound 0.253 µM): 0.308 | relative viability (EPLC-272H; first compound 0.8 µM): 0.298 | relative viability (EPLC-272H; first compound 2.53 µM): 0.265 | relative viability (EPLC-272H; first compound 8 µM): 0.232 | relative viability (SW 1573; first compound 0.08 µM): 0.555 | relative viability (SW 1573; first compound 0.253 µM): 0.511 | relative viability (SW 1573; first compound 0.8 µM): 0.482 | relative viability (SW 1573; first compound 2.53 µM): 0.346 | relative viability (SW 1573; first compound 8 µM): 0.365
